# Data from publication PMC10223552 (Pharmaceuticals, 2023).
# Molecular target: T1, gpH1R (Cavia porcellus, UniProt P31389)
# T1 construct: from tissue; host or cells: isolated distal ileum of male guinea pigs
# Assay: Ex vivo assay for histamine H1R antagonists on guinea pig ileum stimulated by histamine (+atropine)
# Conditions: gpH1R +Atropine pA2 ± sem, isolated guinea pig ileum, vs histamine, 0.05 µM atropine
# Description: A second histamine receptor located in the guinea pig ileum is H1R. The antagonistic effect at H1R was measured on the isolated guinea pig ileum stimulated to contractions by histamine. To eliminate the impact of muscarinic receptors located on the tested tissue, 0.05 µM of atropine was added to the Krebs buffer.
# Ex vivo assay for histamine H3R and H1R antagonists were measured on the isolated guinea pig ileum stimulated to contractions by histamine. The pA2-values were calculated according to Arunlakshana and Schild. The radioligand-displacement binding assay was performed in membrane fractions of HEK-293 cells stably expressing hH3R. Cell cultivation and membrane preparation was performed according to Kottke et al.. The Ki values were calculated from the IC50 values using the Cheng–Prusoff equation [37]. The statistical calculations were performed on –log(Ki). […] The inhibitory activities of novel ADS compounds were assessed in spectrophotometric Ellman’s assay using AChE from electric eel (eeAChE) and BuChE from horse serum (eqBuChE).
# 3.2 Ex vivo assay for histamine H1R receptor antagonists on guinea pig ileum.
# Male guinea pigs, weighing 300-400 g were euthanized by a blow to the neck. A 20-30 cm length of the distal ileum, apart from the terminal 5 cm was rapidly removed and placed in phosphate buffer at room temperature (pH […]
# Aldrich, St. Louis, MO, USA) (1·10-6 mol/L). The intraluminal content was rinsed and the isolated intestine was cut into 1.5-2 cm segments. The preparations were mounted isotonically in a 20 mL organ bath filled with Krebs […]
# a constant load of 0.5 g (Hugo Sachs Hebel-Messvorsatz (Tl-2)/HF-modem; Hugo Sachs Elektronik, Hugstetten, Germany) connected to a pen recorder (Kipp & Zonen BD41, Delft, Holland). During an equilibration period of 40 min, the Krebs buffer was changed every 10 min. The first cumulative concentration-response curve was determined to histamine (Sigma-Aldrich, St. Louis, MO, USA) (10 nM - 10 mM) at increasing concentration spaced by three or 3.3-fold. The second to the fourth (or fifth) curve was measured in the presence of an increasing concentration of antagonist (incubation time 10 min). The pA2-values were calculated according to Arunlakshana and Schild. [Br J Pharmacol Chemother. […] Statistical analysis was carried out with the Students’ t-test. In all tests, a p<0.05 was considered statistically significant. The pA2 values were compared with the affinity
# T1 sequence (P31389 whole entry): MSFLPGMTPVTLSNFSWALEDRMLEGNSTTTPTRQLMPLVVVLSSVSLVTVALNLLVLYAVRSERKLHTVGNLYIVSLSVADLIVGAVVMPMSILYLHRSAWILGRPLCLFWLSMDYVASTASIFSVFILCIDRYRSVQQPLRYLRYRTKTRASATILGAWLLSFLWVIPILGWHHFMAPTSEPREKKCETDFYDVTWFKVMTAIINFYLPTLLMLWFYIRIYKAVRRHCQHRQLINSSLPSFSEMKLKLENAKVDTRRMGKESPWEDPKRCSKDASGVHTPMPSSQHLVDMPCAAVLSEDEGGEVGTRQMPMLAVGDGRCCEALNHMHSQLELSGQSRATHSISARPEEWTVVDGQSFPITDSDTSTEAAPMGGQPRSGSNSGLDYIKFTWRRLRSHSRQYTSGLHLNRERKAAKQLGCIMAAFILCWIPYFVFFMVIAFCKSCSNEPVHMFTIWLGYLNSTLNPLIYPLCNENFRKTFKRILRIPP
smiles,measurement,value
Cl.Cl.N=C(NCCCCc1ccc(Cl)cc1)NCCCCN1CCCCC1 [ADS10310],Kb,0.339 µM
